# Test results as given in patent US7998989B2, “2-Imino-1,3-thiazoline-based compounds and T-type calcium channel inhibitors containing the same” (Korea Institute of Science and Technology, priority 2007, dated 2011).
# Experiments:
# [1] = biological target: T1, α1G T-type calcium channel (Homo sapiens, UniProt O43497); experiment: Assay for % inhibiting activity against T-type calcium channel using FDSS6000 (fluo-3 calcium imaging, KCl activation); type: cell-based; settings: HEK293 cells stably expressing α1G T-type calcium channel and Kir2.1, compounds of the examples; for inhibition at 10 µM: HEK293, 10 μM, read-out: FDSS (% inhibition)/10uM
# T1 construct: host or cells: HEK293
# T1 sequence (O43497 whole entry): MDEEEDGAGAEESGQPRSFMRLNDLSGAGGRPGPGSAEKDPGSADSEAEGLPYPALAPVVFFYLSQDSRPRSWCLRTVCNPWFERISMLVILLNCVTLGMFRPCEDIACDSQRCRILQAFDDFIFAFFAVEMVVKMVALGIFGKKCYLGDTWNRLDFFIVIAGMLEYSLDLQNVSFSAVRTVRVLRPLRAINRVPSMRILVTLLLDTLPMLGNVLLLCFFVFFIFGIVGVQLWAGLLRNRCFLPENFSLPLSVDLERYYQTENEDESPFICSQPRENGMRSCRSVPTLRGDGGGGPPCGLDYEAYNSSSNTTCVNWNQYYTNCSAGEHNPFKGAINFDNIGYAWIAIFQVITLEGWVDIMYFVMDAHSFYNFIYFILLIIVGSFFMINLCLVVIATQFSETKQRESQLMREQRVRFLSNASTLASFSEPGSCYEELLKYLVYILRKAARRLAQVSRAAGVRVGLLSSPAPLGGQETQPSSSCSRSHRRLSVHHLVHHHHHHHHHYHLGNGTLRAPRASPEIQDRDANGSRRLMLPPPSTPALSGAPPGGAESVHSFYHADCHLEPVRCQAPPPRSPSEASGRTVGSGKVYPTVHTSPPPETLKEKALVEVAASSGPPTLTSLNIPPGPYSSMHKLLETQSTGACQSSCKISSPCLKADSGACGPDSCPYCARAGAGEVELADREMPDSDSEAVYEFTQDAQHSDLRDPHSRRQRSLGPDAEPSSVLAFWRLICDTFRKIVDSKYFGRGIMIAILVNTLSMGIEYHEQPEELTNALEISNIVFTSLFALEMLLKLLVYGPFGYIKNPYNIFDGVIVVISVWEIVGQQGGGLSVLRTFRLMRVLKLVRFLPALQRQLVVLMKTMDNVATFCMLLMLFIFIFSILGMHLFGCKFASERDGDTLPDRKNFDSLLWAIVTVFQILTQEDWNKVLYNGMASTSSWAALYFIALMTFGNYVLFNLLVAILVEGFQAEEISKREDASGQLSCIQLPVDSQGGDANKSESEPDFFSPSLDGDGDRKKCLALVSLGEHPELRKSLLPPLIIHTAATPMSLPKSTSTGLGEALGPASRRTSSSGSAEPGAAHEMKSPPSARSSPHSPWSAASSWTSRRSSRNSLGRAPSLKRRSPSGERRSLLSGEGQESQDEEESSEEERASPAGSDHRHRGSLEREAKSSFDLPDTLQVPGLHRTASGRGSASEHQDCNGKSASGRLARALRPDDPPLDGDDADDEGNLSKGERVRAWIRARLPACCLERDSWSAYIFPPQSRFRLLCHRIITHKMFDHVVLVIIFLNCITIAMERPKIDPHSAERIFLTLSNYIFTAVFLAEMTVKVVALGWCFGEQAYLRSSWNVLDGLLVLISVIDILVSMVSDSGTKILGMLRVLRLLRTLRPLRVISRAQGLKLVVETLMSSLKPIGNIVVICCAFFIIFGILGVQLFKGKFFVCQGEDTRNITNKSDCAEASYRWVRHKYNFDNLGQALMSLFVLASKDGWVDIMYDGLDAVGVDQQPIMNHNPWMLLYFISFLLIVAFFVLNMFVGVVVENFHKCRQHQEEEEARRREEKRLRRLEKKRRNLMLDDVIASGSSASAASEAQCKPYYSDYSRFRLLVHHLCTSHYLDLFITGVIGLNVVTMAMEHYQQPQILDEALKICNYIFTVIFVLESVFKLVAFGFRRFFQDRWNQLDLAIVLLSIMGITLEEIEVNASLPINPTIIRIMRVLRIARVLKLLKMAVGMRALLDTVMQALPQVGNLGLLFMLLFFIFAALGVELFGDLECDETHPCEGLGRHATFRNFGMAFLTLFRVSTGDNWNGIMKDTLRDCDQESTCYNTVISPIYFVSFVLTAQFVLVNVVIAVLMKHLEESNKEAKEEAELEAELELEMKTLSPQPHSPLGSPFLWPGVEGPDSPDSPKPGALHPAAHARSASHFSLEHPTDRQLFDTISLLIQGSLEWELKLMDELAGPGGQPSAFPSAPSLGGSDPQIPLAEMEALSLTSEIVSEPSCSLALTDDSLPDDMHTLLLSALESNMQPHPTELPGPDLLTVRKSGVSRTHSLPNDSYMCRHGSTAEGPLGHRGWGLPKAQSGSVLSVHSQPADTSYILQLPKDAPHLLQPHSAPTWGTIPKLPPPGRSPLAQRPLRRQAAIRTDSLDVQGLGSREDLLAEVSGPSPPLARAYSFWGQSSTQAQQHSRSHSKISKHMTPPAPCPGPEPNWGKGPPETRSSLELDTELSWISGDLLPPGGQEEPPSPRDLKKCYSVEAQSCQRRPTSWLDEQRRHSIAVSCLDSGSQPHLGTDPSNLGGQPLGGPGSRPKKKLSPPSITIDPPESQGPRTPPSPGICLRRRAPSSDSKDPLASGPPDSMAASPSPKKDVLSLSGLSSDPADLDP
# Summary of the method: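 Percent inhibition derived from […] area against untreated control (100%), after 75 s compound pre-exposure and 75 mM KCl activation. Cells: HEK293 with stable α1G plus Kir2.1, fluo-3/AM-labelled (5 μM), assayed in pH 7.4 HEPES containing 10 mM CaCl2.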
# [2] = biological target: T1, α1G T-type calcium channel; experiment: Electrophysiological whole cell patch clamp measurement of T-type calcium channel current in HEK293 cells; type: cell-based; settings: HEK293 cells expressing α1G; for HEK293cell (% Inhibition) 10 μM: inhibition of peak current; for IC50: read-out: IC50 (a1G)
# Description: In the present invention, in order to examine an efficient inhibitor against the T-type calcium channel, a primary assay for T-type calcium channel inhibiting activity was conducted by a high-efficient assay using FDSS6000, wherein mammal HEK293 cell lines (originated from human kidney carcinoma cells) that specifically express α1G of the T-type calcium channel was used for primary assay. Through the primary assay, compounds that show meaningful inhibition effects were selected. The selected compounds were used in a second assay for T-type calcium channel inhibiting activity using an electrophysiological whole cell patch clamp method, wherein mammal HEK293 cell lines (originated from human kidney carcinoma cells) that specifically express α1G of the T-type calcium channel was used for the second assay. Mibefradil, which had been developed as a T-type calcium channel inhibitor, was used as a reference.
# 10% Fetal bovine serum (FBS) and 1% penicillin/streptomycin (v/v) were added to Dulbecco's modified Eagle's medium (DMEM), to be used as a media solution. The cells were cultured in an incubator under a wet condition of 95% air/5% CO2 and a temperature of 36.5° C. The media solution was refreshed every 3 or 4 days, and the cells were sub-cultured every week. Only the cells that expressed α1G T-type calcium channel were cultured using a G-418 (0.5 mg/ml) solution. The recording of the cells used in the T-type calcium channel activity analysis was conducted at 2-7 days after the cells were culturing on a cover slip coated with poly-L-lysine (0.5 mg/ml) when conducting every sub-culture. For analysis at a single cell level, the T-type calcium channel current was measured by an electrophysiological whole cell patch clamp method using EPC-9 amplifier (HEKA, German).
# As solutions for analyzing T-type calcium channel activity, a solution including NaCl 140 mM, CaCl2 2 mM, and HEPES10 mM (pH 7.4, Sigma; 4-(2-hydroxyethyl)piperazine-1-ethanesulfonic acid) was used as an extracellular solution, and a solution including KCl 130 mM, HEPES 10 mM (Sigma), EGTA 11 mM (ethylene glycol-bis(2-aminoethylether)-N,N,N′,N′-tetraacetic acid, Sigma), and MgATP 5 mM (pH 7.4, Sigma) was used as an intracellular solution. The protocol for T-type calcium channel activity that is activated at low voltage is as follows. A micro-glass electrode with resistance of 3-4 MΩ wherein the above-prepared intracellular solution was filled was pricked into a single cell, to make a whole-cell recording mode. Thereafter, the cell membrane potential was fixed to −100 mV, and then the inward current due to the T-type calcium channel activity when hypopolarizing to −30 mV (50 ms duration) was measured every 10 seconds.
# Each compound to be tested was dissolved in 100% dimethylsulfoxide (DMSO) to make a 10 mM stock solution. The effect of the compound on the T-type calcium channel current compound was initially examined in the stock solution with the 1000-times diluted concentration of 10 μM (containing 0.1% DMSO) and then examined in the solution with the concentration for IC50 measurement (mostly 0.1 to 100 μM), to obtain an IC50 value. More specifically, the cells were treated in each compound together with the extracellular solution for 30 to 60 seconds, and the inhibition level of peak current induced by the compound was calculated as a percentage, to obtain the % inhibition value as shown in Table 4.
Compound,FDSS (% inhibition)/10uM [1] [%],HEK293cell (% Inhibition) 10 μM [2] [%],IC50 [2] [nM],inhibition at 10 µM [1] [%],melting point [°C]
"CN1C(=NC2CCCCCC2)SCC1CC(=O)Nc1cc(Cl)cc(Cl)c1.Cl (stereo not drawn) [KHG24125, (2-cycloheptylimino-3-methyl-1,3-thiazolidine-4-yl)-N-(3,5- ? chlorophenyl)-acetamide hydrochloride]",71.79,95.6 ± 1.2,80 ± 10,,
"(2-cyclohexylimino-3-methyl-1,3-thiazolidine-4-yl)-N-(4-isopropylphenyl)-acetamide hydrochloride [KHG23364]",53,97.0 ± 0.7,870 ± 180,,
"[2-(1-adamantylimino)-3-cyclopropyl-1,3-thiazolidine-4-yl]-N-(4-phenoxyphenyl)-acetamide hydrochloride [KHG24800]",83.5,95.4 ± 0.5,430 ± 70,,
"[2-(1-adamantyl)imino-3-methyl-1,3-thiazolidine-4-yl]-N-(3,5-ditrifluoromethylphenyl)-acetamide hydrochloride [KHG24241]",70.68,92.2 ± 0.5,170 ± 20,,
"[2-(1-adamantylimino)-3-ethyl-1,3-thiazolidine-4-yl]-N-(4-trifluoromethylphenyl)-acetamide hydrochloride [KHG24821]",73.69,92.3 ± 1.8,360 ± 20,,
"(2-cyclohexylimino-3-methyl-1,3-thiazolidine-4-yl)-N-(4-bromophenyl)-acetamide hydrochloride [KHG23354]",54.26,83.0 ± 1.4,2470 ± 180,,
"(2-cycloheptylimino-3-methyl-1,3-thiazolidine-4-yl)-N-(4-methoxybenzyl)-acetamide hydrochloride [KHG24161]",31.29,81.2 ± 1.3,1670 ± 510,,
"(2-cycloheptylimino-3-methyl-1,3-thiazolidine-4-yl)-N-(4-fluorophenyl)-acetamide hydrochloride [KHG24118]",66,80.3 ± 1.1,1880 ± 220,,
"(2-cycloheptylimino-3-methyl-1,3-thiazolidine-4-yl)-N-(4-isopropylphenyl)-acetamide hydrochloride [KHG24133]",69.18,96.0 ± 1.9,420 ± 10,,
"(2-cyclohexylimino-3-methyl-1,3-thiazolidine-4-yl)-N-(4-trifluoromethylphenyl)-acetamide hydrochloride [KHG24074]",65.2,94.7 ± 0.5,660 ± 60,,
"(2-cycloheptylimino-3-methyl-1,3-thiazolidine-4-yl)-N-(4-bromophenyl)-acetamide hydrochloride [KHG24122]",71.12,94.6 ± 0.5,390 ± 30,,
"(2-cyclohexylimino-3-methyl-1,3-thiazolidine-4-yl)-N-(4-n-butylphenyl)-acetamide hydrochloride [KHG23365]",60.16,97.6 ± 0.5,600 ± 60,,
"(2-cycloheptylimino-3-methyl-1,3-thiazolidine-4-yl)-N-(5-chloro-2-fluorophenyl)-acetamide hydrochloride [KHG24128]",62.56,88.1 ± 1.9,550 ± 10,,
"(2-cycloheptylimino-3-methyl-1,3-thiazolidine-4-yl)-N-(2-fluoro-4-methylphenyl)-acetamide hydrochloride [KHG24126]",53.79,87.7 ± 0.6,1200 ± 80,,
"[2-(1-adamantyl)imino-3-methyl-1,3-thiazolidine-4-yl]-N-(4-ethylphenyl)-acetamide hydrochloride [KHG24236]",69.55,94.4 ± 0.6,230 ± 20,,
"(2-cyclohexylimino-3-methyl-1,3-thiazolidine-4-yl)-N-(3-chloro-4-methylphenyl)-acetamide hydrochloride [KHG24072]",63.5,91.2 ± 1.6,990 ± 30,,
"(2-cycloheptylimino-3-methyl-1,3-thiazolidine-4-yl)-N-(4-methoxyphenyl)-acetamide hydrochloride [KHG24119]",52.85,72.9 ± 1.0,4440 ± 280,,
"(2-cyclohexylimino-3-methyl-1,3-thiazolidine-4-yl)-N-(4-methylphenyl)-acetamide hydrochloride [KHG24077]",46.41,57.0 ± 1.5,7220 ± 360,,
"[2-(1-adamantyl)imino-3-methyl-1,3-thiazolidine-4-yl]-N-(4-isopropylphenyl)-acetamide hydrochloride [KHG24243]",60.9,97.0 ± 1.1,50 ± 10,,
"(2-cycloheptylimino-3-methyl-1,3-thiazolidine-4-yl)-N-(4-cyanomethylphenyl)-acetamide hydrochloride [KHG24121]",41.02,58.1 ± 4.9,8530 ± 1720,,
"CC1SC(=NC2CCCCCC2)N(C)C1CC(=O)Nc1ccc(C(F)(F)F)cc1.Cl (stereo not drawn) [KHG24520, (2-cycloheptylimino-3,5-dimethyl-1,3-thiazolidine-4-yl)-N-(4-trifluoromethylphenyl)-acetamide hydrochloride]",,,,64.8,261 to 263
"Br.CN1C(=NC2CCCCCC2)SCC1C(=O)NCc1ccccc1C(F)(F)F (stereo not drawn) [KHG24670, (2-cycloheptylimino-3-methyl-1,3-thiazolidine-4-yl)-N-(2-trifluoromethylbenzyl)-carboxamide hydrobromide]",,,,46.7,236.9
"CN1C(=NC2CCCC2)SCC1CC(=O)Nc1ccc(Cl)cc1F.Cl (stereo not drawn) [KHG24105, (2-cyclopentylimino-3-methyl-1,3-thiazolidine-4-yl)-N-(4-chloro-2-fluorophenyl)-acetamide hydrochloride]",,,,40.4,228 to 230.5
